SMILES strings stand for the structures. Bounds are passed on as bounds.

Data set [1] relates to male rabbit. Kind of data set: Mucosecretolytic activity (technique of Giraldez et al.). The format is in vivo. The conditions noted are these: 500 mg/kg/os. From the text:
The mucosecretolytic activity has been studied in the male rabbit according to the technique of Giraldez, Grass and Bruseghini (Abstr. Comp. Int. Pharm. N. 1086-Paris 1978), by administration by the oral route, comparing AFP-696 with carboxymethylcysteine and sobrerol at the dose hereinafter stated.

The test system of data set [2] is male Wistar rats. Kind of data set: Bronchosecretogogue activity (Mawatari technique). The format is in vivo, rat. The conditions noted are these: 500 mg/kg/os, FlNa = Sodium fluoresceine. From the text:
The bronchosecretogogue activity has been determined in male Wistar rats by per os administration according to the method of Mawatari [Mawatari H., Kagoshima Daigaku Igaku-Zasshi, 27, 561 (1976)], comparing AFP-696 with carboxymethylcysteine and sobrerol at the doses hereinafter stated.

Data set [3] can be described thus: Acute toxicity (Litchfield and Wilcoxon method), mouse. The settings on record: Swiss, in vivo. From the text:
(§1) The acute toxicity has been determined in Swiss mouse and in Wistar rat for different administration routes, according to the method of Litchfield J.T. and Wilcoxon [J. Pharm. Exp. Therap. 96, 99―113, (1949)].
(§2) The results obtained are reported in the following Table I; from the same it can be pointed out how AFP 696 is endowed with a very low acute toxicity.

For data set [4], the system named is cough induced by citric acid aerosol. Kind of data set: Anti-cough activity, cough induced by citric acid aerosol. The format is in vivo, rabbits. The conditions noted are these: cough strokes. How it is done:
The anti-cough activity of AFP-696 has been assessed after administration by endoperitoneal route (30% in tween) on rabbits of both sexes, weighing […], according to the method of the cough induced by citric acid aerosol administration, and evaluating the mean number of cough strokes in comparison with the same basal values (Boura and coil. - Prog. Brit. Pharmac. Soc. Apr. 1970). As reference standard a group of codeine treated animals at the dose of 12.5 mg/kg has been used.

Data set [5] in a line: Solubility of the isolated product. The format is physicochemical. The protocol: To 90 g of ASA in 500 ml of benzene, 120 g of thionyl chloride are added. The mixture is refluxed for three hours. At the end, the benzene is evaporated under reduced pressure to dryness. The acetylsalicyclic acid chloride so obtained is dissolved in 500 ml of anhydrous tetrahydrofuran and added with 80 g of pyridine; to this solution 85 g of sobrerol (di-trans form) are added. The reaction is completed after two hours refluxing. At the end the solvent is evaporated under reduced pressure, the residue is washed with water and extracted with ethyl ether. […] Its structure is confirmed by analytical and spectroscopical data: • Elemental analysis: for C19H24O5 (M.W. = 332.39) • calcd. % C = 68.66; H = 7.28 • found % C = 68.79; H = 7.33. • I.R. Spectrum (liquid film; values of absorption bands are expressed in cm^-1): • stretch 0-H 3550-3400 broad bands • stretch C-H aromatics alifatics 3080-2910 • stretch C = O alifat. ester 1780 • stretch C = O aromat. ester 1730 • stretch C = C 1615 • stretch C(= 0)-O acetate 1145 • stretch C(= 0)-0 arilyc 1255 • H' NMR Spectrum (recorded in CDCI3, internal references TMS; values of chemical shifts are expressed in 6): • 1.2 (d, 6H, 2(CH3)); • 1.8 (s, 3H, =C-CH3); • 1.4-2.2 (m, 6H, CH2-CH-CH2, OH mobile); • 2.3 (s, 3H, CO-CH3); • 5.3 (m, 1H, CH―O―CO); • 5.8 (m, 1H, CH=C-CH3); • 7-7.7 (m, 3H aromatics); • 8 (double d, 1H aromatic). […]

The test system of data set [6] is subplantar edema induced by carrageenin. Kind of data set: Antiinflammatory activity, subplantar edema by carrageenin. The format is in vivo. The conditions noted are these: rat; for MEAN LIMB VOLUME AT DIFFERENT HOURS AFTER TREATMENT 0: hour 0; for MEAN LIMB VOLUME AT DIFFERENT HOURS AFTER TREATMENT 1: hour 1; for MEAN LIMB VOLUME AT DIFFERENT HOURS AFTER TREATMENT 2: hour 2; for MEAN LIMB VOLUME AT DIFFERENT HOURS AFTER TREATMENT 3: hour 3; for MEAN LIMB VOLUME AT DIFFERENT HOURS AFTER TREATMENT 4: hour 4; for MEAN LIMB VOLUME AT DIFFERENT HOURS AFTER TREATMENT 5: hour 5; for AREA Absolute value: limb volume over 5 hours. How it is done:
Tests have been performed on the rat, employing the test of the subplantar edema induced by carrageenin. […] and, for comparison, ASA, have been administered by oral route 30 minutes before carrageenin, at the doses hereinafter stated. After edema induction, the animals of each group have been controlled, every 60 minutes for 5 consecutives hours, in order to point out the evolution of the inflammatory process.

The nature of data set [7]: Pharmacokinetics, plasma and lung levels by gas chromatography. The settings on record: rats. The format is in vivo. How it is done:
Two groups of rats have been treated per os, by gastric tube, with AFP-696 at the dose of 100 mg/kg and acetylsalicylic acid at the dose of 54 mg/kg. At the moment of treatment rats were fasting since 18 hours. Rats have been then sacrificed in groups of 4 at different times: 30 min., 1 h, 2 h, 4 h, 6 h.
The concentration both of unchanged products and of their metabolites have been measured by gaschromatography in plasma and in the lung.

In data set [8] the test system is writhings by phenylquinone. Kind of data set: Analgesic activity, writhings by phenylquinone. The format is in vivo. The settings on record: mouse; for % Inhibition in comparison with controls: writhings. How it is done:
The test of writhings by phenylquinone in the mouse has been used. AFP-696 has been administered by oral route at the dose of 500 mg/kg in comparison with acetylsalicylic acid at the dose of […].
The two drugs have been administered per os 30 minutes after intraperitoneal injection of phenil- quinone.
In general terms: In writhing tests, fewer writhes than in controls are read as antinociception.

Data set [9] deals with gastric mucose. Kind of data set: Gastrolesive action. The format is in vivo. The settings on record: rats fasting since 18 hours, 5 hours 30 minutes after treatment. How it is done: Rats fasting since 18 hours have been treated by oral route with AFP-696 and, for comparison, with acetylsalicylic acid, at the doses hereinafter stated. 5 Hours and 30 minutes after treatments, the animals have been sacrificed and the stomach has been withdrawn for gastric mucose examination.

Data set [10] is described as follows: Acute toxicity (Litchfield and Wilcoxon method), rat. The conditions noted are these: Wistar, in vivo.
Source text: as §1, §2

On to `CC1=CCC(C(C)(C)O)CC1O` (stereo not drawn) [Sobrerol, 2-methyl-5-(1-hydroxy-1-methyl-ethyl)-2-cyclohexen-1-ol, reference compound], for which the “% Increase of secretion in comparison with controls” value in [1] was determined as 36.8%. Moreover, in [2], the “% Increase of FlNa (*) in comparison with controls” value stood at 33.4%.

By LD50 is commonly meant the dose at which mortality reaches 50%. As for `CC(=O)Oc1ccccc1C(=O)OC1CC(C(C)(C)O)CC=C1C` (stereo not drawn) [AFP-696, 2-acetoxybenzoate of 2-methyl-5-(1-hydroxy-1-methylethyl)-cyclohexen-2-yl], the LD50 in [3] (ip) amounted to 1600 mg/kg. For the same compound, the LD50 in [3] (oral, os) was 3500 mg/kg. For the same compound, the “% Inhibition in comparison with controls” value in data set [4] (150 mg/kg, endoperitoneal route (30% in tween)) turned out to be 82.4%. In data set [5] (organic solvents), the “solubility in organic solvents” value is “easily soluble”. Moreover, in data set [5] (water), the solubility in water entry is reported as “slightly soluble”. In addition, in [6] (500 mg/kg os), the “AREA % Inhibition in comparison with controls” value came out at 33.0%, the “MEAN LIMB VOLUME AT DIFFERENT HOURS AFTER TREATMENT 0” value was 24.1, the “MEAN LIMB VOLUME AT DIFFERENT HOURS AFTER TREATMENT 1” value came to 28.1 and the “MEAN LIMB VOLUME AT DIFFERENT HOURS AFTER TREATMENT 2” value amounted to 31.4. In data set [6] (500 mg/kg os), the “MEAN LIMB VOLUME AT DIFFERENT HOURS AFTER TREATMENT 3” value came out at 37.4, the “MEAN LIMB VOLUME AT DIFFERENT HOURS AFTER TREATMENT 4” value amounted to 38.1, the “MEAN LIMB VOLUME AT DIFFERENT HOURS AFTER TREATMENT 5” value came out at 38.1 and the “AREA Absolute value” is listed as 183.0. Moreover, the “pulmonary levels of salicylic acid” value in data set [7] (100 mg/kg per os vs acetylsalicylic acid 54 mg/kg, lung) is “higher”. For the same compound, the “plasma levels of acetylsalicylic acid in comparison with the administration of acetylsalicylic acid at equimolar doses” value in [7] (100 mg/kg per os vs acetylsalicylic acid 54 mg/kg, more marked in the first two hours) is “higher”. For the same compound, in data set [7] (100 mg/kg per os, at 30 minutes and in some instance also at 1 hour), the “unchanged AFP-696 in plasma” value was “found in plasma”. For the same compound, in data set [8] (500 mg/kg os), the “Mean No of writhings” value came out at 1.3 ± 0.9, the “No animals with writhings” value is on record as 3/10 and the “% Inhibition in comparison with controls” value came out at 89.8%. Besides, in data set [9] (150 mg/kg/os), the “Mean ulcers' size” value turned out to be 0.7 ± 0.4 mm. The “% Increase of secretion in comparison with controls” value in [1] was determined as 39.5%. The “% Increase of FlNa (*) in comparison with controls” value in data set [2] stood at 63.6%. In addition, the LD50 in [10] (ip) turned out to be 1950 mg/kg. The same compound gave an LD50 in data set [10] (oral, os) greater than 4000 mg/kg.

For `COc1ccc2c3c1O[C@H]1[C@@H](O)C=C[C@H]4[C@@H](C2)N(C)CC[C@@]341` [Codeine, codeine, reference compound], in data set [4] (12.5 mg/kg), the “% Inhibition in comparison with controls” value is reported as 76.7%.

Take `CC(=O)Oc1ccccc1C(=O)O` [Acetylsalicylic acid, acetylsalicylic acid, reference compound]: in data set [6] (250 mg/kg os), the “AREA % Inhibition in comparison with controls” value is recorded as 33.6%, the “MEAN LIMB VOLUME AT DIFFERENT HOURS AFTER TREATMENT 0” value was found to be 24.3, the “MEAN LIMB VOLUME AT DIFFERENT HOURS AFTER TREATMENT 1” value is listed as 27.4 and the “MEAN LIMB VOLUME AT DIFFERENT HOURS AFTER TREATMENT 2” value was 32.2. Besides, in data set [6] (250 mg/kg os), the “MEAN LIMB VOLUME AT DIFFERENT HOURS AFTER TREATMENT 3” value is reported as 37.8, the “MEAN LIMB VOLUME AT DIFFERENT HOURS AFTER TREATMENT 4” value was found to be 38.6, the “MEAN LIMB VOLUME AT DIFFERENT HOURS AFTER TREATMENT 5” value is recorded as 38.6 and the “AREA Absolute value” was 181.28. Besides, in [8] (250 mg/kg os), the “Mean No of writhings” value was 0.6 ± 0.5, the “No animals with writhings” value is on record as 1/10 and the “% Inhibition in comparison with controls” value was found to be 95.3%. In [9] (100 mg/kg/os), the “Mean ulcers' size” value was 3.9 ± 1.2 mm.

These data come from patent EP0084678B1, “New compound having analgesic, antiinflammatory and mucoregulating activities, process for its production and relative pharmaceutical compositions” (AUSONIA FARMACEUTICI S.r.l., priority 1982, dated 1983).
